Measurements as given in PubChem BioAssay AID330 (DTP/NCI, 2004).
Where “and” joins values, the source holds several entries; their conditions need not be identical. Identical values can stand only once. Toxic doses and inconclusive results are not listed. How the source made its calls: active means survival T/C of 150% or more; inactive means T/C below 125% in these data.

Tested on: P388 leukemia ip, CD2F1 mice, survival T/C
Assay: NCI In Vivo Anticancer Drug Screen. Data for tumor model P388 Leukemia (intraperitoneal) in CD2F1 (CDF1) mice
Details: endpoint: median survival time, higher = longer survival
Method in brief: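 Mice carrying the transplanted tumor received test compound or vehicle. Survival was recorded in each group, and the value is the treated-group measurement divided by that of the vehicle-treated control group.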

[1] = dose: 50.0 mg/kg/injection, schedule: Q01DX009 (ip), vehicle: saline with Tween-80
[2] = dose: 100.0 mg/kg/injection, schedule: Q01DX009 (ip), vehicle: saline with Tween-80
[3] = dose: 200.0 mg/kg/injection, schedule: Q01DX009 (ip), vehicle: saline with Tween-80
[4] = dose: 100.0 mg/kg/injection, schedule: Q01DX005 (ip), vehicle: saline with Tween-80
[5] = dose: 12.5 mg/kg/injection, schedule: Q01DX005 (ip), vehicle: Klucel (hydroxypropylcellulose) (HPC)
[6] = dose: 50.0 mg/kg/injection, schedule: Q01DX005 (ip), vehicle: Klucel (hydroxypropylcellulose) (HPC)
[7] = dose: 50.0 mg/kg/injection, schedule: Q01DX009 (ip), vehicle: Klucel (hydroxypropylcellulose) (HPC)
[8] = dose: 100.0 mg/kg/injection, schedule: Q01DX005 (ip), vehicle: Klucel (hydroxypropylcellulose) (HPC)
[9] = dose: 200.0 mg/kg/injection, schedule: Q01DX005 (ip), vehicle: Klucel (hydroxypropylcellulose) (HPC)
[10] = dose: 50.0 mg/kg/injection, schedule: Q01DX005 (ip), vehicle: saline with Tween-80
[11] = dose: 200.0 mg/kg/injection, schedule: Q01DX005 (ip), vehicle: saline with Tween-80

Measured: T/C

CC(=O)ON(C(C)=O)C1CCCCC1
inactive: [1] 100 % of control | [2] 97 % of control | [3] 98 % of control

CC(C)(C)N=NNc1ccc([N+](=O)[O-])cc1
inactive: dose: 12.5 mg/kg/injection, schedule: Q01DX009 (ip), vehicle: distilled water + Tween-80 106 % of control | dose: 25.0 mg/kg/injection, schedule: Q01DX009 (ip), vehicle: distilled water + Tween-80 100 % of control | dose: 50.0 mg/kg/injection, schedule: Q01DX009 (ip), vehicle: distilled water + Tween-80 93 % of control | dose: 100.0 mg/kg/injection, schedule: Q01DX009 (ip), vehicle: distilled water + Tween-80 86 % of control | dose: 200.0 mg/kg/injection, schedule: Q01DX009 (ip), vehicle: distilled water + Tween-80 96 % of control

O=C1CC(c2ccccc2)C(c2ccccc2)C1=O (centres undefined)
inactive: dose: 12.5 mg/kg/injection, schedule: Q04DX003 (ip), vehicle: Klucel (hydroxypropylcellulose) (HPC) 107 % of control | dose: 25.0 mg/kg/injection, schedule: Q04DX003 (ip), vehicle: Klucel (hydroxypropylcellulose) (HPC) 102 % of control | dose: 50.0 mg/kg/injection, schedule: Q04DX003 (ip), vehicle: Klucel (hydroxypropylcellulose) (HPC) 102 % of control

Cc1cc(N=Nc2ccc(NC(=O)c3ccc([N+](=O)[O-])cc3)cc2C)ccc1N=Nc1ccc2cc(S(=O)(=O)O)cc(S(=O)(=O)O)c2c1
inactive: dose: 12.5 mg/kg/injection, schedule: Q01DX005 (ip), vehicle: saline with Tween-80 102 % of control and 107 % of control and 109 % of control | dose: 25.0 mg/kg/injection, schedule: Q01DX005 (ip), vehicle: saline with Tween-80 109 % of control and 111 % of control and 120 % of control | [4] 111 % of control

CC1=C(C)CC2C(=O)c3c(c(O)c4ccccc4c3Cl)C(=O)C2C1 (centres undefined)
inactive: dose: 50.0 mg/kg/injection, schedule: Q01DX001 (ip), vehicle: Klucel (hydroxypropylcellulose) (HPC) 90 % of control | dose: 100.0 mg/kg/injection, schedule: Q01DX001 (ip), vehicle: Klucel (hydroxypropylcellulose) (HPC) 89 % of control | dose: 200.0 mg/kg/injection, schedule: Q01DX001 (ip), vehicle: Klucel (hydroxypropylcellulose) (HPC) 86 % of control and 90 % of control | dose: 400.0 mg/kg/injection, schedule: Q01DX001 (ip), vehicle: Klucel (hydroxypropylcellulose) (HPC) 92 % of control

CC(NNC(=S)N1CCN(c2ccccn2)CC1)c1ccccn1 (centres undefined)
inactive: [5] 99 % of control | dose: 25.0 mg/kg/injection, schedule: Q01DX005 (ip), vehicle: Klucel (hydroxypropylcellulose) (HPC) 101 % of control | [6] 109 % of control and 95 % of control

CC(=O)NCCSC(NC(=O)Cc1ccccc1)C(=O)O (centres undefined)
inactive: [7] 94 % of control | dose: 100.0 mg/kg/injection, schedule: Q01DX009 (ip), vehicle: Klucel (hydroxypropylcellulose) (HPC) 97 % of control | dose: 200.0 mg/kg/injection, schedule: Q01DX009 (ip), vehicle: Klucel (hydroxypropylcellulose) (HPC) 100 % of control

COC(=O)c1cc2c(C(=O)OC)cc1CSCc1cccc(c1)CSC2
inactive: dose: 12.5 mg/kg/injection, schedule: Q01DX009 (ip), vehicle: suspension in saline 90 % of control | dose: 25.0 mg/kg/injection, schedule: Q01DX009 (ip), vehicle: suspension in saline 87 % of control | dose: 50.0 mg/kg/injection, schedule: Q01DX009 (ip), vehicle: suspension in saline 97 % of control

Cc1ccc(S(=O)(=O)NCCSSCCNS(=O)(=O)c2ccc(C)cc2)cc1
inactive: [6] 103 % of control | [8] 106 % of control | [9] 103 % of control

O=C(Nc1nccs1)Nc1ccc(Br)cc1C(F)(F)F
inactive: [1] 110 % of control | [2] 113 % of control | [3] 113 % of control

CCCCCCCCOC(=O)c1ccc(O)cc1
inactive: dose: 12.5 mg/kg/injection, schedule: Q01DX009 (ip), vehicle: saline with Tween-80 99 % of control | dose: 25.0 mg/kg/injection, schedule: Q01DX009 (ip), vehicle: saline with Tween-80 100 % of control | [1] 99 % of control and 96 % of control | [2] 92 % of control

CCN(CC)CCNc1ccc(COC(=O)Nc2ccccc2)c2sc3ccccc3c(=O)c12
inactive: dose: 6.25 mg/kg/injection, schedule: Q01DX005 (ip), vehicle: Klucel + Tween-80 111 % of control

CCn1c2nc(=O)n(C)c(=O)c-2[n+]([O-])c2cc(Br)c(C)cc21
inactive: dose: 100.0 mg/kg/injection, schedule: Q04DX002 (ip), vehicle: saline with Tween-80 96 % of control | dose: 200.0 mg/kg/injection, schedule: Q04DX002 (ip), vehicle: saline with Tween-80 94 % of control | dose: 400.0 mg/kg/injection, schedule: Q04DX002 (ip), vehicle: saline with Tween-80 96 % of control

O=C(CCl)c1ccc([N+](=O)[O-])cc1
inactive: dose: 1.56 mg/kg/injection, schedule: Q01DX005 (ip), vehicle: Klucel (hydroxypropylcellulose) (HPC) 100 % of control | dose: 3.12 mg/kg/injection, schedule: Q01DX005 (ip), vehicle: Klucel (hydroxypropylcellulose) (HPC) 100 % of control | dose: 6.25 mg/kg/injection, schedule: Q01DX005 (ip), vehicle: Klucel (hydroxypropylcellulose) (HPC) 108 % of control | [5] 89 % of control and 98 % of control | [1] 116 % of control

N#Cc1c(O)c2c(c(O)c1C#N)C(=O)c1ccccc1C2=O
inactive: [10] 97 % of control | [4] 95 % of control | [11] 92 % of control

C=CCNSc1cccc([N+](=O)[O-])c1
inactive: dose: 6.25 mg/kg/injection, schedule: Q01DX009 (ip), vehicle: Klucel (hydroxypropylcellulose) (HPC) 121 % of control | dose: 12.5 mg/kg/injection, schedule: Q01DX009 (ip), vehicle: Klucel (hydroxypropylcellulose) (HPC) 120 % of control | dose: 25.0 mg/kg/injection, schedule: Q01DX009 (ip), vehicle: Klucel (hydroxypropylcellulose) (HPC) 121 % of control | [7] 102 % of control and 103 % of control and 115 % of control

CC(C)(C)OP(=O)(O)OC(C)(C)C
inactive: dose: 25.0 mg/kg/injection, schedule: Q01DX009 (ip), vehicle: water 103 % of control | dose: 50.0 mg/kg/injection, schedule: Q01DX009 (ip), vehicle: water 100 % of control | dose: 100.0 mg/kg/injection, schedule: Q01DX009 (ip), vehicle: water 107 % of control | dose: 200.0 mg/kg/injection, schedule: Q01DX009 (ip), vehicle: water 107 % of control | dose: 400.0 mg/kg/injection, schedule: Q01DX009 (ip), vehicle: water 112 % of control

CCCCCCCCCCCCCCCC[N+](C)(C)C(C)c1ccccc1 (centres undefined)
inactive: dose: 0.78 mg/kg/injection, schedule: Q04DX003 (ip), vehicle: saline with Tween-80 104 % of control and 106 % of control | dose: 1.56 mg/kg/injection, schedule: Q04DX003 (ip), vehicle: saline with Tween-80 116 % of control and 118 % of control | dose: 6.25 mg/kg/injection, schedule: Q04DX003 (ip), vehicle: saline with Tween-80 117 % of control

CC(=O)NC1=NN(C(C)=O)C(C)(c2ccccc2)S1=O (centres undefined)
inactive: [10] 103 % of control | [4] 107 % of control | [11] 101 % of control

CC1CCCC2=C1C(O)c1cccc(N)c1C2O (centres undefined)
inactive: [6] 102 % of control | [8] 96 % of control | [9] 88 % of control

CCC(C)(OC(C)=O)C(=O)OC1C(=O)OC2CC3C(C)=CC(O)C(O)C3(C)C3C4(O)OCC23C1C(C)C4O (centres undefined)
inactive: dose: 0.25 mg/kg/injection, schedule: Q01DX009 (ip), vehicle: saline + alcohol 103 % of control | dose: 0.5 mg/kg/injection, schedule: Q01DX009 (ip), vehicle: saline + alcohol 96 % of control | dose: 1.0 mg/kg/injection, schedule: Q01DX009 (ip), vehicle: saline + alcohol 96 % of control | dose: 2.0 mg/kg/injection, schedule: Q01DX009 (ip), vehicle: saline + alcohol 96 % of control | dose: 4.0 mg/kg/injection, schedule: Q01DX009 (ip), vehicle: saline + alcohol 99 % of control

CC1(C)COC(c2c(F)cccc2Cl)=N1
inactive: [10] 100 % of control | [4] 100 % of control | [11] 98 % of control

CN1NC1(C)C (centres undefined)
inactive: dose: 50.0 mg/kg/injection, schedule: Q04DX002 (ip), vehicle: saline 100 % of control | dose: 100.0 mg/kg/injection, schedule: Q04DX002 (ip), vehicle: saline 110 % of control | dose: 200.0 mg/kg/injection, schedule: Q04DX002 (ip), vehicle: saline 98 % of control

CCCCCCCCC(=O)N1SC(NC(=O)OC)=Nc2ccccc21
inactive: dose: 50.0 mg/kg/injection, schedule: Q01DX005 (ip), vehicle: acetone 98 % of control | dose: 100.0 mg/kg/injection, schedule: Q01DX005 (ip), vehicle: acetone 93 % of control | dose: 200.0 mg/kg/injection, schedule: Q01DX005 (ip), vehicle: acetone 111 % of control

C=CC1=C(C)C2=NC1=CC1=NC(=CC3=C(C)C4=C(O)C(C(=O)OC)C(=C5NC(=C2)C(C)C5CCC(=O)OC/C=C(\C)CCCC(C)CCCC(C)CCCC(C)C)C4=N3)C(CC)=C1C (centres undefined)
inactive: [10] 90 % of control | [4] 92 % of control | [11] 92 % of control
